{
  "source": "paper PMC4323000",
  "about": "(Oncotarget, 2015)",
  "key": {"[1]": {"assay": "Pharmacokinetic study of MBL-II-141, CPT-11 and SN-38 (blood, liver, brain; LC-MS/MS)", "conditions": "for Mean of differences in Blood levels, compound alone versus CPT-11 + MBL-II-141: P (two tailed): CPT-11 0.3616, SN-38 0.0299, MBL-II-141 0.1555; for Mean of differences in Liver levels, compound alone versus CPT-11 + MBL-II-141: P (two tailed): CPT-11 0.6878, SN-38 0.1727, MBL-II-141 0.1046", "procedure": "In order to achieve possible cumulative effects, reiterated administrations (two or three) were carried out with a 4 h time interval between administrations. Blood samples were collected at either 1 h or 4 h after the last injection.\nTotal blood samples were collected using dried heparinized syringes, avoiding modification of samples. Blood and plasma were stored at −80°C. […] Tissues were crushed using a dried cold system.\nBoth assays were performed on a C18 column HypersilGold, (ThermoElectron), 3.0 μm, (100 mm × 2.1 mm i.d.). The mass spectrometry analysis was performed in positive ion mode with electrospray source. […] A volume of 50 μL of whole blood or tissue solution was introduced into a conic centrifuge and 50 μL of solution of the internal standard and 300 μL of cold acetonitrile were added. The sample was mixed and centrifuged for 10 min at 13000 g at 5°C. […] The residues were resuspended in 100 μL of mobile phase and 10 μL were injected into the HPLC device. […] When the concentration was over the upper standard concentration, a dilution of the sample was performed using blank whole blood or appropriate tissues. Peak area ratios of compound to the respective internal standard measured at each nominal concentration were used to construct weighted (1/concentration) least-square linear regression curves. […] Results in tissues were normalized to cellular protein content. Results in tissues were normalized to cellular protein content (C1600 Abott technology)."}, "[2]": {"test_system": "HEK-pcDNA3.1 xenografts", "assay": "Chemosensitization study, just-established ABCG2-negative tumors", "conditions": "CPT-11 alone 20 mg/kg", "procedure": "4.10^6 HEK-pcDNA3.1 or HEK-ABCG2 cells were sub-cutaneously injected into one flank of each SCID mouse, in solution with 50% matrigel. After the apparition of most tumors, mice were randomly distributed into 4 groups of 20 animals (10 ABCG2 negative and 10 ABCG2-positive tumors). […] Two independent injections were carried out per mouse.\nTreatments were intraperitoneally administered three times a week until mice sacrifice. […] Finally, mice were sacrificed when the tumor diameter reached 17 mm.\nGrowth models. Tumor growth curves were modeled with GraphPad© Software. Gaussian distribution models were obtained according to the equation Y = Amplitude*exp (−0.5*((X-Mean)/SD)^2). The amplitude was the height of the center of the distribution in Y units. Mean was the X value at the center of the distribution. SD was a measure of the width of the distribution, in the same units as X. Another model was applied for sum of two Gaussian distributions with Y = one + two (One = Amplitude 1*exp(−0.5*((X-Mean1)/SD1)^2) and Two = Amplitude 2*exp(−0.5*((X-Mean2)/SD2)^2)). Amplitudes were the heights of the center of the distribution in Y units. Means were the X values at the center of the two distributions. SDs were measures of the widths of the distributions, in the same units as X.\nPaired t-test. The statistical test used was the paired t-test. It was applied for all data of growth tumor experiments and pharmacokinetics data."}, "[3]": {"test_system": "ABCG2", "conditions": "ref per compound in Table 2; cited from earlier work"}, "[4]": {"test_system": "ABCG2-overexpressing tumors", "conditions": "ref per compound in Table 2; cited from earlier work"}, "[5]": {"test_system": "ABCG2", "conditions": "read-out: In vitro Inhibition (IC50), cited from earlier work"}, "[6]": {"conditions": "cited from earlier work"}, "[7]": {"conditions": "cited from earlier work", "remark": "listed apart in the source"}, "[8]": {"conditions": "CPT-11 20 mg/kg + MBL-II-141 10 mg/kg IP"}, "[9]": {"conditions": "substrate Mitoxantrone, ref [13],[21],[35],[45]–[48] (GF120918), [7] (Triclabendazole)"}, "[10]": {"conditions": "substrate Hoechst 3342, ref [6],[24],[49] (Ko143), [40] (YHO-13177)"}, "[11]": {"conditions": "I.P., ref per compound in Table 2"}, "[12]": {"conditions": "oral, ref per compound in Table 2"}},
  "note": "“Also recorded” adds a separate entry of the source. Where two headings read alike, the source gives them in different places.",
  "data": [
    {"smiles": "CCc1c2c(nc3ccc(OC(=O)N4CCC(N5CCCCC5)CC4)cc13)-c1cc3c(c(=O)n1C2)COC(=O)[C@]3(O)CC", "note": "[CPT-11, irinotecan]", "values": [
      {"measurement": "increase of CPT-11 brain levels in the presence of MBL-II-141", "setting": "[1]; [8]", "result": "approximately 2 fold"},
      {"measurement": "fraction lost from the blood at 4 h", "setting": "[1]; CPT-11 20 mg/kg IP", "result": 90, "unit": "%"},
      {"measurement": "Mean of differences in Brain levels, compound alone versus CPT-11 + MBL-II-141", "setting": "[1]; paired t-test over time, P (two tailed): CPT-11 0.0416, MBL-II-141 0.1059", "result": -2.085},
      {"measurement": "Mean of differences in Blood levels, compound alone versus CPT-11 + MBL-II-141", "setting": "[1]; paired t-test over time", "result": -220.0},
      {"measurement": "Mean of differences in Liver levels, compound alone versus CPT-11 + MBL-II-141", "setting": "[1]; paired t-test over time", "result": -28.86},
      {"measurement": "effect on growth of ABCG2-negative cells (tumors)", "setting": "[2]", "result": "completely blocked"},
      {"measurement": "survival of mice bearing ABCG2-negative tumors", "setting": "[2]", "result": 100, "unit": "%"}
    ]},
    {"smiles": "COc1cc2c(cc1OC)CN(CCc1ccc(NC(=O)c3cccc4c(=O)c5cccc(OC)c5[nH]c34)cc1)CC2", "note": "[GF120918]", "values": [
      {"measurement": "In vitro ABCG2 Specificity", "setting": "[3]", "result": "No"},
      {"measurement": "In vivo Impact on Tumor growth", "setting": "[4]", "result": "Yes"},
      {"measurement": "IC50", "setting": "[5]; [9]", "result": 310, "unit": "nM"}
    ]},
    {"smiles": "COc1ccc2c3c([nH]c2c1)[C@H](CC(C)C)N1C(=O)[C@H](CCC(=O)OC(C)(C)C)NC(=O)[C@@H]1C3", "note": "[Ko143]", "values": [
      {"measurement": "In vitro ABCG2 Specificity", "setting": "[3]", "result": "Yes"},
      {"measurement": "IC50", "setting": "[5]; [10]", "result": "[…]"},
      {"measurement": "IC50", "setting": "[5]; substrate Pheophorbide A, ref [6],[24],[49]", "result": "[…]"},
      {"measurement": "In vivo Toxicity, Acute", "setting": "[6]; [11]", "result": "> 10", "unit": "mg/kg I.P."},
      {"measurement": "In vivo Toxicity, Acute", "setting": "[6]; [12]", "result": "> 50", "unit": "mg/kg oral"},
      {"measurement": "increase of topotecan plasma levels (oral availability)", "setting": "[7]; ABCB1(−/−) mice", "result": "4 to 6", "unit": "fold"},
      {"measurement": "In vivo Impact on Pharmacokinetics", "setting": "[7]; of Topotecan, ref [13],[21],[35],[45]–[48] (GF120918), [6],[24],[49] (Ko143)", "result": "Topotecan: Yes"}
    ]},
    {"smiles": "CCc1c2c(nc3ccc(O)cc13)-c1cc3c(c(=O)n1C2)COC(=O)[C@]3(O)CC", "note": "[SN-38]", "values": [
      {"measurement": "Liver/Plasma ratio, fold-change induced by the combination treatment", "setting": "[1]; 30 min", "result": 0.9, "unit": "fold-change"},
      {"measurement": "Liver/Plasma ratio, fold-change induced by the combination treatment", "setting": "[1]; 60 min", "result": 0.6, "unit": "fold-change"},
      {"measurement": "Liver/Plasma ratio, fold-change induced by the combination treatment", "setting": "[1]; 120 min", "result": 1.1, "unit": "fold-change"},
      {"measurement": "Liver/Plasma ratio, fold-change induced by the combination treatment", "setting": "[1]; 240 min", "result": 1.0, "unit": "fold-change"},
      {"measurement": "Liver/Plasma ratio, fold-change induced by the combination treatment", "setting": "[1]; 480 min", "result": 1.0, "unit": "fold-change"},
      {"measurement": "change of SN-38 blood levels in the presence of MBL-II-141", "setting": "[1]; [8]", "result": "increased; also recorded: strongly increased"},
      {"measurement": "difference between CPT-11 and SN-38 levels (SN-38 lower)", "setting": "[1]; SCID mice", "result": 19, "unit": "fold"},
      {"measurement": "time until which detected in blood", "setting": "[1]; SN-38 after CPT-11 20 mg/kg IP", "result": 6, "unit": "h"},
      {"measurement": "SN-38 levels in the brain", "setting": "[1]; after CPT-11 20 mg/kg IP, with or without MBL-II-141", "result": "below the limits of quantification; also recorded: under the limit of detection"},
      {"measurement": "Mean of differences in Blood levels, compound alone versus CPT-11 + MBL-II-141", "setting": "[1]; paired t-test over time", "result": -109.6},
      {"measurement": "Mean of differences in Liver levels, compound alone versus CPT-11 + MBL-II-141", "setting": "[1]; paired t-test over time", "result": -12.65},
      {"measurement": "SN-38 plasma levels lower than CPT-11", "setting": "[7]; ICR mice, 1 h after the injection", "result": 27, "unit": "fold"}
    ]},
    {"smiles": "CSc1nc2cc(Cl)c(Oc3cccc(Cl)c3Cl)cc2[nH]1", "note": "[Triclabendazole]", "values": [
      {"measurement": "IC50", "setting": "[5]; [9]", "result": "~10000", "unit": "nM"},
      {"measurement": "In vivo Toxicity, Acute", "setting": "[6]; [11]", "result": "> 100", "unit": "mg/kg I.P."},
      {"measurement": "In vivo Impact on Pharmacokinetics", "setting": "[7]; of Nitrofurantoin, ref [7]", "result": "Nitrofurantoin: Yes"}
    ]},
    {"smiles": "COc1ccc(/C(C#N)=C/c2ccc(N3CCC(O)CC3)s2)cc1OC", "note": "[YHO-13177]", "values": [
      {"measurement": "In vitro ABCG2 Specificity", "setting": "[3]", "result": "Yes"},
      {"measurement": "In vivo Impact on Tumor growth", "setting": "[4]", "result": "Yes"},
      {"measurement": "IC50", "setting": "[5]; [10]", "result": "~300", "unit": "nM"},
      {"measurement": "In vivo Toxicity, Acute", "setting": "[6]; I.V., ref [13],[21],[35],[45]–[48] (GF120918), [40] (YHO-13177)", "result": "> 30", "unit": "mg/kg I.V."},
      {"measurement": "In vivo Toxicity, Acute", "setting": "[6]; [12]", "result": "> 200", "unit": "mg/kg oral"}
    ]}
  ]
}
